Assay results published in US6245736A, “Use of peptidic bradykinin antagonists for the treatment and prevention of Alzheimer's disease” (Aventis Pharma Deutschland GmbH, priority 1996, dated 2001).
Where no end group is shown, it is not given here.

Legend:
Assay type in all cases: cell-based
[1] = tested on: rat microvascular coronary endothelial cells; assay: cGMP production stimulated by the Alzheimer protein β/A4 in endothelial cell cultures (RMCECs), radioimmunoassay
Text: (§1) Action of the compounds of the formula (I) on cGMP production stimulated by the Alzheimer protein β/A4 in endothelial cell cultures
(§2) Bovine aortic endothelial cell cultures (BAECs=bovine aortic endothelial cells), […] coronary rat endothelial cell cultures (RMCECs=rat microvascular coronary endothelial cells) and human umbilical vein endothelial cell cultures (HUVECs=human umbilical vein endothelial cells)
(§3) Determination of the effect of bradykinin antagonists of the formula (I) on the production of cGMP stimulated by administration of 0.1 and 1 μmol/l of the Alzheimer protein β/A4 in endothelial cell cultures of various species and organs.
(§4) In endothelial cells, bradykinin leads to an increase in the production of cGMP, which is determined by means of a radioimmunoassay. Increase in the formation of cGMP by bradykinin is an indicator of a release of NO (nitrogen monoxide) from endothelial cells.
(§5) Stimulation of cGMP production by βA(1-40) and inhibitory effect of the bradykinin antagonist HOE 140 (10^-7 mol/l) in 3 different types of endothelial cells: […]

[2] = tested on: bovine aortic endothelial cells; assay: cGMP production stimulated by the Alzheimer protein β/A4 in endothelial cell cultures (BAECs), radioimmunoassay
Text: as §1, §2, §3, §4, §5

[3] = tested on: human umbilical vein endothelial cells; assay: cGMP production stimulated by the Alzheimer protein β/A4 in endothelial cell cultures (HUVECs), radioimmunoassay
Text: as §1, §2, §3, §4, §5

[4] = simultaneous incubation with HOE 140 0.1 μmol/l
[5] = stimulated with BK 10^-8 mol/l + HOE 140 (10^-7 mol/l)
[6] = stimulated with βA (1-40) 10^-6 mol/l + HOE 140 (10^-7 mol/l)
[7] = stimulated with βA (1-40) 10^-7 mol/l + HOE 140 (10^-7 mol/l)

RPPGFSPFR [BK, bradykinin]
cGMP production ([1]; BK 10^-8 mol/l alone): 1.13 ± 0.2 pmol/mg of protein | cGMP production ([2]; BK 10^-8 mol/l alone): 8.8 ± 0.34 pmol/mg of protein | cGMP production ([3]; BK 10^-8 mol/l alone): 11.46 ± 2 pmol/mg of protein

N=C(N)NCCC[C@@H](N)C(=O)N[C@@H](CCCNC(=N)N)C(=O)N1CCC[C@H]1C(=O)N1C[C@H](O)C[C@H]1C(=O)NCC(=O)N[C@@H](Cc1cccs1)C(=O)N[C@@H](CO)C(=O)N1Cc2ccccc2C[C@@H]1C(=O)N1[C@H](C(=O)N[C@@H](CCCNC(=N)N)C(=O)O)C[C@@H]2CCCC[C@@H]21 [HOE 140, H-D-Arg-Arg-Pro-Hyp-Gly-Thi-Ser-D-Tic-Oic-Arg-OH]
effect on the stimulation of the production of cGMP induced by the β/A4 protein [1, 4]: prevents the stimulation of the production of cGMP | cGMP production [1, 5]: 0.22 ± 0.02 pmol/mg of protein | cGMP production [1, 6]: 0.32 ± 0.05 pmol/mg of protein | cGMP production [1, 7]: 0.34 ± 0.02 pmol/mg of protein | effect on the stimulation of the production of cGMP induced by the β/A4 protein [2, 4]: prevents the stimulation of the production of cGMP | cGMP production [2, 5]: 2.2 ± 0.2 pmol/mg of protein | cGMP production [2, 6]: 2.2 ± 0.2 pmol/mg of protein | cGMP production [2, 7]: 2.2 ± 0.28 pmol/mg of protein | effect on the stimulation of the production of cGMP induced by the β/A4 protein [3, 4]: prevents the stimulation of the production of cGMP | cGMP production [3, 5]: 3.45 ± 0.45 pmol/mg of protein | cGMP production [3, 6]: 5.3 pmol/mg of protein | cGMP production [3, 7]: 4.0 pmol/mg of protein

βA (1-40): Alzheimer protein amyloid (β/A4), used to stimulate cGMP production [reference compound]
cGMP production ([1]; βA (1-40) 10^-6 mol/l alone): 0.74 ± 0.09 pmol/mg of protein | cGMP production ([1]; βA (1-40) 10^-7 mol/l alone): 0.59 ± 0.07 pmol/mg of protein | cGMP production ([2]; βA (1-40) 10^-6 mol/l alone): 4.6 ± 0.13 pmol/mg of protein | cGMP production ([2]; βA (1-40) 10^-7 mol/l alone): 5.9 ± 0.23 pmol/mg of protein | cGMP production ([3]; βA (1-40) 10^-6 mol/l alone): 15.3 ± 1.9 pmol/mg of protein | cGMP production ([3]; βA (1-40) 10^-7 mol/l alone): 14.07 ± 1.6 pmol/mg of protein
